Laboratory results as given in ChEMBL document CHEMBL2176994, “Radiosynthesis of PET radiotracer as a prodrug for imaging group II metabotropic glutamate receptors in vivo” (Bioorg Med Chem Lett, 2012).

Assays:
[1] = target: Metabotropic glutamate receptor 3 (Rattus norvegicus, UniProt P31422); experiment: Agonist activity at mGLUR3 in rat cerebral cortex assessed as inhibition of forskolin-stimulated cAMP production; type: functional, tissue-based
[2] = target: T1, Metabotropic glutamate receptor 3 (Homo sapiens, UniProt Q14832); experiment: Agonist activity at mGLUR3 expressed in CHO cells; type: functional, cell-based
T1 sequence (Q14832 whole entry): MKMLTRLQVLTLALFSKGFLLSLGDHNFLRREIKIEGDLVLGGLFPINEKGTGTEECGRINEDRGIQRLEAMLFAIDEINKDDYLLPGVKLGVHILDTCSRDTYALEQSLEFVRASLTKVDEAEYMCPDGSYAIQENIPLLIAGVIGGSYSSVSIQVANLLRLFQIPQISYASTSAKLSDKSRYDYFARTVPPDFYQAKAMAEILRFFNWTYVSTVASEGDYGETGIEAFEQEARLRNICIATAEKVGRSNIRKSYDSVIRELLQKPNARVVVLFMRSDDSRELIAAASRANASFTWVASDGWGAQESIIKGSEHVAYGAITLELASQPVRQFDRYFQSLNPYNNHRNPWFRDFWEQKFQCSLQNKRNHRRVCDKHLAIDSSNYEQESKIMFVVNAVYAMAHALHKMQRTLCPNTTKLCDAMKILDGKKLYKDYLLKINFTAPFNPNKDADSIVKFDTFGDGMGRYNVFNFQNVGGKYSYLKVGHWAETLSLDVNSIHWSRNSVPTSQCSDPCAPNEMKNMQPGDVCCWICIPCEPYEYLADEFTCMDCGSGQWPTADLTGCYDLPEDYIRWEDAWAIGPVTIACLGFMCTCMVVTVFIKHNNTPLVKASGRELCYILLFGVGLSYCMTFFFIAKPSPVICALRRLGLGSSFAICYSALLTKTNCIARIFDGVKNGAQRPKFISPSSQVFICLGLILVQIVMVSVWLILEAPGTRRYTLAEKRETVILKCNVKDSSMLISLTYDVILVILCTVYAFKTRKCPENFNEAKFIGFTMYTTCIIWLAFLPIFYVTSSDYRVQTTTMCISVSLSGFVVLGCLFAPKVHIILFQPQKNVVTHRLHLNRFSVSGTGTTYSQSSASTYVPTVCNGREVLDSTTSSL

[3] = target: T2, Metabotropic glutamate receptor 2 (Homo sapiens, UniProt Q14416); experiment: Agonist activity at mGLUR2 expressed in CHO cells; type: functional, cell-based
T2 sequence (Q14416 whole entry): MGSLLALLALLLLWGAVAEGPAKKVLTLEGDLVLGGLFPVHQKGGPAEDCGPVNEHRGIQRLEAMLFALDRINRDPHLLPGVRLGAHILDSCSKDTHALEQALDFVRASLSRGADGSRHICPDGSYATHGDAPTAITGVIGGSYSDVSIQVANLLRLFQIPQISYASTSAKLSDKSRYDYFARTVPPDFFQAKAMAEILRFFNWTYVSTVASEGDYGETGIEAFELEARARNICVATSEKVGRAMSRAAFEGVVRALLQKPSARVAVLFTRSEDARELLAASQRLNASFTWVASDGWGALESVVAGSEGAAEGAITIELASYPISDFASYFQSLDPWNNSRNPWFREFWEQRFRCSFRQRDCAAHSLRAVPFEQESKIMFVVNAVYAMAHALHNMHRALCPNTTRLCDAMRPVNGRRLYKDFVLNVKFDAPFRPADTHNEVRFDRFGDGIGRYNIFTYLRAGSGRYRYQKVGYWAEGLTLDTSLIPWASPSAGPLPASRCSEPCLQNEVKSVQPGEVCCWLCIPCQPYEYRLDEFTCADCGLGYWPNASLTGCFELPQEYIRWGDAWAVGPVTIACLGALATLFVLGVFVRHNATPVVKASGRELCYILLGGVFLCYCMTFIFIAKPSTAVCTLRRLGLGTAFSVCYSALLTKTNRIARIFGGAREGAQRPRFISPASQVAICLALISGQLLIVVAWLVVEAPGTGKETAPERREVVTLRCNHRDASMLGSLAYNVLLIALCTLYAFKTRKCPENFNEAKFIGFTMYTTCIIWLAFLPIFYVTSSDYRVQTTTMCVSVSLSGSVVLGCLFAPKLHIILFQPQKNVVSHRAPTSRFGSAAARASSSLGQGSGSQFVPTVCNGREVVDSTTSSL

Cerebellum = experiment: Drug uptake in Sprague-Dawley rat cerebellum at […], iv from 20 to 40 mins by microPET analysis in presence of LY341495; type: ADME, organism-based; conditions: in vivo
Hippocampus [4] = experiment: Drug uptake in Sprague-Dawley rat hippocampus at […], iv from 1 to 40 mins by microPET analysis; type: ADME, organism-based; conditions: in vivo
[5] = Drug uptake in Sprague-Dawley rat cingulate cortex at […], iv from 20 to 40 mins by microPET analysis in presence of LY341495; type: ADME, organism-based; conditions: in vivo
[6] = Drug uptake in Sprague-Dawley rat motor cortex at […], iv from 20 to 40 mins by microPET analysis in presence of LY341495; type: ADME, organism-based; conditions: in vivo
Brain [7] = experiment: Drug uptake in Sprague-Dawley rat brain at […], iv from 1 to 40 mins by microPET analysis; type: ADME, organism-based; conditions: in vivo
Brain [8] = experiment: Drug uptake in Sprague-Dawley rat brain at […], iv at 2 mins by microPET analysis; type: ADME, organism-based; conditions: in vivo
Striatum [9] = experiment: Drug uptake in Sprague-Dawley rat striatum at […], iv from 1 to 40 mins by microPET analysis; type: ADME, organism-based; conditions: in vivo
Cortex = experiment: Drug uptake in Sprague-Dawley rat cortex at […], iv from 1 to 40 mins by microPET analysis; type: ADME, organism-based; conditions: in vivo
Brain [10] = experiment: Drug uptake in Sprague-Dawley rat brain at […], iv from 20 to 40 mins by microPET analysis in presence of LY341495; type: ADME, organism-based; conditions: in vivo
[11] = Drug uptake in Sprague-Dawley rat olfactory lobe at […], iv from 20 to 40 mins by microPET analysis in presence of LY341495; type: ADME, organism-based; conditions: in vivo
Hippocampus [12] = experiment: Drug uptake in Sprague-Dawley rat hippocampus at […], iv from 20 to 40 mins by microPET analysis in presence of LY341495; type: ADME, organism-based; conditions: in vivo
Thalamus = experiment: Drug uptake in Sprague-Dawley rat thalamus at 0.4 uCi, iv from 20 to 40 mins by microPET analysis in presence of LY341495; type: ADME, organism-based; conditions: in vivo
Striatum [13] = experiment: Drug uptake in Sprague-Dawley rat striatum at 0.4 uCi, iv from 20 to 40 mins by microPET analysis in presence of LY341495; type: ADME, organism-based; conditions: in vivo
[14] = target: T1, Metabotropic glutamate receptor 3; experiment: Binding affinity to mGLUR3
[15] = target: T2, Metabotropic glutamate receptor 2; experiment: Antagonist activity at mGLUR2 expressed in CHO cells assessed as inhibition of glutamate-induced inhibition of forskolin-stimulated cAMP production
[16] = target: T2, Metabotropic glutamate receptor 2; experiment: Binding affinity to mGLUR2
[17] = target: T1, Metabotropic glutamate receptor 3; experiment: Antagonist activity at mGLUR3 expressed in CHO cells assessed as inhibition of glutamate-induced inhibition of forskolin-stimulated cAMP production; type: functional, cell-based
Brain [18] = experiment: Drug uptake in Sprague-Dawley rat brain at […], iv from 20 to 25 mins by microPET analysis; type: ADME, organism-based; conditions: in vivo

Sequence of Metabotropic glutamate receptor 3 (Rattus norvegicus, UniProt P31422) (P31422 whole entry): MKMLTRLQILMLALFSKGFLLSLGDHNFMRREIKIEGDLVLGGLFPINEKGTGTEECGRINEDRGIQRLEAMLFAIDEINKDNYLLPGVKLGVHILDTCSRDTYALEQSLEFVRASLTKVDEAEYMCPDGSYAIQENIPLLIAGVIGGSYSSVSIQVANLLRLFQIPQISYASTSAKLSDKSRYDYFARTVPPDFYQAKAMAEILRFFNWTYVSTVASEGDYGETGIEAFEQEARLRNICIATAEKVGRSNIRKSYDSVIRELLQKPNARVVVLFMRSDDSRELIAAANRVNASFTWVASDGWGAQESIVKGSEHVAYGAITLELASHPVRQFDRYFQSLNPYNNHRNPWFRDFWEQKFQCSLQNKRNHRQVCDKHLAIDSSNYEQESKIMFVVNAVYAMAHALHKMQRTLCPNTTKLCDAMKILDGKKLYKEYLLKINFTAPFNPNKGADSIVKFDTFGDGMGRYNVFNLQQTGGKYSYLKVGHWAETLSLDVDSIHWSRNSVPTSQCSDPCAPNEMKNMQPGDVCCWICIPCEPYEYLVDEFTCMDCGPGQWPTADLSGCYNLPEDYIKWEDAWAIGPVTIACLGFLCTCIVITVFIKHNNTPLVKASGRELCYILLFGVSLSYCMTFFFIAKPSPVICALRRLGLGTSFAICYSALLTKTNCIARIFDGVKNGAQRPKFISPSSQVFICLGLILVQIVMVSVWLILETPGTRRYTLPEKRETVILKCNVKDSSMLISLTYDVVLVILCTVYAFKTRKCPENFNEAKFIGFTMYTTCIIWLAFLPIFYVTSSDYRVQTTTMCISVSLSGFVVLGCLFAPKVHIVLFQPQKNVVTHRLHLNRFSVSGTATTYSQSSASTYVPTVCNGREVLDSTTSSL

Structure (SMILES): N[C@@]1(C(=O)O)CC[C@H]2[C@H](C(=O)O)[C@H]21
- EC50 [1]: 38 nM

Structure (SMILES): N[C@@]1(C(=O)O)CC(=O)[C@@H]2[C@H]1[C@@]2(F)C(=O)O
- EC50 [2]: 2.07 nM
- EC50 [3]: 0.57 nM

Structure (SMILES): COC(=O)[C@H]1C[C@@H]1[C@@](N)(CCc1cccc(O[11CH3])c1)C(=O)OC
- Drug uptake (Cerebellum): Not Active
- Drug uptake (Hippocampus [4]): Active
- Drug uptake [5]: Not Active
- Drug uptake [6]: Not Active
- Drug uptake (Brain [7]): Active
- Drug uptake (Brain [8]): 2.5 %ID/cm3
- Drug uptake (Striatum [9]): Active
- Drug uptake (Cortex): Active
- Drug uptake (Brain [10]): Not Active
- Drug uptake [11]: Active
- Drug uptake (Hippocampus [12]): Not Active
- Drug uptake (Thalamus): Not Active
- Drug uptake (Striatum [13]): Not Active

Structure (SMILES): N[C@]1(C(=O)O)[C@H]2[C@@H](C[C@H]1OCc1ccc(Cl)c(Cl)c1)[C@]2(F)C(=O)O
- Ki [14]: 4.5 nM
- IC50 [15]: 20 nM
- Ki [16]: 2.2 nM
- IC50 [17]: 24 nM

Structure (SMILES): [11CH3]Oc1cccc(CC[C@@](N)(C(=O)O)[C@H]2C[C@@H]2C(=O)O)c1
- Drug uptake (Brain [18]): Not Active
